Values of other authors in publication PMC5201331, “Subchronic Toxicities of HZ1006, a Hydroxamate-Based Histone Deacetylase Inhibitor, in Beagle Dogs and Sprague-Dawley Rats” (International Journal of Environmental Research and Public …, 2016).

Legend:
[1] = test system: patients; parameters: method as in PMID 12440223; settings: day-1 and -5 schedule every 21 days; cited from earlier work
[2] = test system: dogs; parameters: method as in PMID 19903873; settings: 26 weeks orally dosed daily with 4-week recovery; cited from earlier work
[3] = test system: rats; parameters: method as in PMID 19903873; settings: rats, 20, 50 or 150 mg/kg/day, 26 weeks orally dosed daily with 4-week recovery; cited from earlier work

For `C/C=C1\NC(=O)[C@H]2CSSCC/C=C/[C@H](CC(=O)N[C@H](C(C)C)C(=O)N2)OC(=O)[C@H](C(C)C)NC1=O` [depsipeptide], the MTD [1] is given as 17.8 mg/m^2.

In the case of `O=C(CCCCCCC(=O)Nc1ccccc1)NO` [vorinostat, suberoylanilide hydroxamic acid], the “no-observed adverse effect level” value [2] is given as 60 mg/kg/day and the “no-observed adverse effect level” value [3] is given as “not established”.
